PubChem BioAssay (NCI)
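Interpolation was linear, between the two tested concentrations surrounding the appropriate level; five concentrations were tested over 48 hours in 96-well plates. At the GI50, growth is halved. TGI marks complete inhibition of growth.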

Experiments:
Assay in all cases: NCI-60 cell line screen, 48 h
[1] = tested on: NCI-H23 lung
[2] = tested on: CAKI-1 renal
[3] = tested on: A549 NSCLC
[4] = tested on: U251 CNS
[5] = tested on: COLO 205 colon
[6] = tested on: SF-268 CNS
[7] = tested on: PC-3 prostate
[8] = tested on: HL-60(TB) leukemia
[9] = tested on: RPMI-8226 leukemia
[10] = tested on: SK-MEL-28 melanoma
[11] = tested on: HT29 colon
[12] = tested on: MOLT-4 leukemia
[13] = tested on: BT-549 breast
[14] = tested on: SK-MEL-5 melanoma
[15] = tested on: K-562 leukemia
[16] = tested on: T-47D breast
[17] = tested on: NCI-H460 lung
[18] = tested on: OVCAR-4 ovarian
[19] = tested on: NCI-H226 lung
[20] = tested on: UACC-62 melanoma
[21] = tested on: HOP-92 NSCLC
[22] = tested on: KM12 colon
[23] = tested on: HCT-15 colon
[24] = tested on: HOP-62 NSCLC
[25] = tested on: MCF7 breast
[26] = tested on: SK-OV-3 ovarian
[27] = tested on: MDA-MB-435
[28] = tested on: MALME-3M melanoma
[29] = tested on: RXF 393 renal
[30] = tested on: SNB-19 CNS
[31] = tested on: HCT-116 colon
[32] = tested on: M14 melanoma
[33] = tested on: EKVX NSCLC
[34] = tested on: MDA-MB-231 breast
[35] = tested on: OVCAR-5 ovarian
[36] = tested on: UO-31 renal
[37] = tested on: TK-10 renal
[38] = tested on: ACHN renal
[39] = tested on: LOX IMVI melanoma
[40] = tested on: SF-295 CNS
[41] = tested on: UACC-257 melanoma
[42] = tested on: SN12C renal
[43] = tested on: NCI-H522 lung
[44] = tested on: SF-539 CNS
[45] = tested on: IGROV1 ovarian
[46] = tested on: HS 578T breast
[47] = tested on: 786-0 renal
[48] = tested on: SW-620 colon
[49] = tested on: SK-MEL-2 melanoma
[50] = tested on: SNB-75 CNS
[51] = tested on: DU-145 prostate
[52] = tested on: A498 renal
[53] = tested on: OVCAR-8 ovarian
[54] = tested on: OVCAR-3 ovarian
[55] = tested on: HCC-2998 colon
[56] = tested on: NCI/ADR-RES ovarian
[57] = tested on: CCRF-CEM leukemia

`COc1cc2c(/C=C3/C(=O)Nc4ccc(O)cc43)c(Cl)[nH]c2cc1C` was tested, and the TGI [1] was 3.78 µM, the TGI [2] was 3.19 µM and the TGI [3] was 32.9 µM. For the same molecule, the TGI [4] was 2.99 µM, the TGI [5] was 0.894 µM and the TGI [6] was 26.4 µM. For the same molecule, the TGI [7] was 22.2 µM, the TGI [8] was 4.08 µM and the TGI [9] was 1.34 µM. The TGI [10] was 0.0526 µM, the TGI [11] was 5.42 µM and the TGI [12] was 0.387 µM. It also gave a TGI [13] of 3.84 µM, a TGI [14] of 3.29 µM and a TGI [15] of 16 µM. The TGI [16] was 7.85 µM, the TGI [17] was 19.2 µM and the TGI [18] was 3.38 µM. It also gave a TGI [19] of 3.77 µM, a TGI [20] of 3.08 µM and a TGI [21] of 42.6 µM. For the same molecule, the TGI [22] was 5.35 µM, the TGI [23] was 1.17 µM and the TGI [24] was 4.55 µM. For the same molecule, the TGI [25] was greater than 100 µM, the TGI [26] was 2.48 µM and the TGI [27] was 0.0441 µM. It also gave a TGI [28] of 1.38 µM, a TGI [29] of 30.5 µM and a TGI [30] of 22.3 µM. It also gave a TGI [31] of 6.61 µM, a TGI [32] of 2.02 µM and a TGI [33] of 26.8 µM. The TGI [34] was 4.25 µM, the TGI [35] was 30.8 µM and the TGI [36] was 21.1 µM. It also gave a TGI [37] of 26.1 µM, a TGI [38] of 1.64 µM and a TGI [39] of 11.9 µM. It also gave a TGI [40] of 13.5 µM, a TGI [41] of 21.9 µM and a TGI [42] of 3.06 µM. The TGI [43] was 19.5 µM, the TGI [44] was 0.185 µM and the TGI [45] was 20.5 µM. For the same molecule, the TGI [46] was 28.5 µM, the TGI [47] was 16.7 µM and the TGI [48] was 20 µM. For the same molecule, the TGI [49] was 29.2 µM, the TGI [50] was 20 µM and the TGI [51] was 7.55 µM. For the same molecule, the TGI [52] was 24.6 µM and the TGI [53] was 7.77 µM.

`COc1ccc(C(=O)n2nc(/C=C/c3ccc(O)c(OC)c3)cc2/C=C/c2ccc(O)c(OC)c2)cc1` was tested, and the GI50 [1] was 0.84 µM, the TGI [1] was 4.69 µM and the GI50 [2] was 0.452 µM. The TGI [2] was 15.3 µM, the GI50 [3] was 1.37 µM and the TGI [3] was 14 µM. For the same molecule, the GI50 [4] was 0.597 µM, the TGI [4] was 10.9 µM and the GI50 [6] was 0.476 µM. The TGI [6] was 8.42 µM, the GI50 [7] was 0.496 µM and the TGI [7] was 3.78 µM. The GI50 [54] was 0.449 µM, the TGI [54] was 2.28 µM and the GI50 [55] was 2.16 µM. For the same molecule, the TGI [55] was 9.19 µM, the GI50 [10] was 0.602 µM and the TGI [10] was 7.45 µM. It also gave a GI50 [11] of 0.482 µM, a TGI [11] of 2.24 µM and a GI50 [13] of 0.466 µM. It also gave a TGI [13] of 2.32 µM, a GI50 [15] of 0.404 µM and a TGI [15] greater than 100 µM. The GI50 [16] was 0.737 µM, the TGI [16] was 3.95 µM and the GI50 [17] was 0.37 µM. It also gave a TGI [17] of 13.3 µM, a GI50 [18] of 0.695 µM and a TGI [18] of 5.44 µM. It also gave a GI50 [19] of 2.06 µM, a TGI [19] of 8.52 µM and a GI50 [21] of 0.609 µM. The TGI [21] was 4.88 µM, the GI50 [22] was 0.387 µM and the TGI [22] was 18.1 µM. For the same molecule, the GI50 [23] was 0.338 µM, the TGI [23] was 5.96 µM and the GI50 [56] was 0.492 µM. The TGI [56] was 10.5 µM, the GI50 [25] was 0.303 µM and the TGI [25] was 1.57 µM. It also gave a GI50 [26] of 0.465 µM, a TGI [26] of 1.8 µM and a GI50 [28] of 0.556 µM. The TGI [28] was 3.59 µM, the GI50 [30] was 1.09 µM and the TGI [30] was 18.8 µM. It also gave a GI50 [31] of 0.362 µM, a TGI [31] of 2.69 µM and a GI50 [32] of 0.328 µM. The TGI [32] was 1.32 µM, the GI50 [34] was 0.575 µM and the TGI [34] was 22.6 µM. For the same molecule, the GI50 [35] was 2.61 µM, the TGI [35] was greater than 100 µM and the GI50 [36] was 0.393 µM. The TGI [36] was 3.2 µM, the GI50 [37] was 1.91 µM and the TGI [37] was 6.66 µM. The GI50 [38] was 0.388 µM, the TGI [38] was 17.2 µM and the GI50 [39] was 0.467 µM. It also gave a TGI [39] of 3.15 µM, a GI50 [40] of 1.64 µM and a TGI [40] of 6.28 µM. The GI50 [41] was 2.03 µM, the TGI [41] was 12.1 µM and the GI50 [57] was 0.304 µM. For the same molecule, the TGI [57] was greater than 100 µM, the GI50 [42] was 0.635 µM and the TGI [42] was 19.3 µM. The GI50 [43] was 0.267 µM, the TGI [43] was 0.785 µM and the GI50 [44] was 0.365 µM. It also gave a TGI [44] of 2.21 µM, a GI50 [47] of 0.445 µM and a TGI [47] of 1.84 µM. The GI50 [48] was 0.455 µM, the TGI [48] was 11.9 µM and the GI50 [49] was 0.36 µM. The TGI [49] was 0.934 µM, the GI50 [50] was 0.395 µM and the TGI [50] was 1.64 µM. The GI50 [51] was 0.668 µM, the TGI [51] was 4.56 µM and the GI50 [52] was 2.25 µM. It also gave a TGI [52] of 7.26 µM, a GI50 [53] of 0.86 µM and a TGI [53] of 13.1 µM.
